Measurements published in US5733912A, “7A-heterocycle substituted hexahydro-1H-pyrrolizine compounds useful in controlling chemical synaptic transmission” (Abbott Laboratories, priority 1997, dated 1998).
Structures can show the parent of a compound that is named as a salt.

Columns and labels:
[1] = biological target: neuronal nicotinic acetylcholine receptors; test: Displacement of [3H]-cytisine from nicotinic acetylcholine receptors, crude synaptic membrane preparations from whole rat brain; details: [3H]-cytisine 1.25 nM, whole rat brain membranes, 60 minutes at 4° C.; IC50 converted to Ki by Cheng and Prusoff; read-out: Binding to Neuronal Nicotinic Acetylcholine Receptors (Binding)
Description: For the purpose of identifying compounds as cholinergic agents which are capable of interacting with nicotinic acetylcholine receptors in the brain, a ligand-receptor binding assay was carried out as the initial screen. Compounds of the present invention were effective at interacting with neuronal nicotinic acetylcholine receptors as assayed for their ability to displace radioligand from neuronal nicotinic acetylcholine channel receptors labeled with [^3 H]-cytisine ([^3 H]-CYT).
Displacement of [^3 H]-CYT from nicotinic acetylcholine receptors was determined using crude synaptic membrane preparations from whole rat brain (Pabreza et al., Molecular Pharmacol., 1990, 39: 9). Washed membranes were stored at -80° C. prior to use. Frozen aliquots were slowly thawed and resuspended in 20 volumes of buffer (containing: 120 mM NaCl, 5 mM KCl, 2 mM MgCl2, 2 mM CaCl2 and 50 mM Tris-Cl, pH 7.4 @4° C.). After centrifuging at 20,000×g for 15 minutes, the pellets were resuspended in 30 volumes of buffer. Homogenate (containing 125-150 μg protein) was added to triplicate tubes containing concentrations of test compound and [^3 H]-CYT (1.25 nM) in a final volume of 500 μL. Samples were incubated for 60 minutes at 4° C., then rapidly filtered through Whatman GF/B filters presoaked in 0.5% polyethylimine using 3×4 mL of ice-cold buffer. The filters are counted in 4 mL of Ecolume® (ICN). Nonspecific binding was determined in the presence of 10 μM (-)-nicotine and values were expressed as a percentage of total binding.

[2] = system: neuronal nicotinic acetylcholine receptors; test: 86Rb+ efflux assay in IMR-32 human neuroblastoma cells (activation or inhibition of neuronal nicotinic acetylcholine receptors); assay type: cell-based; details: for IMR-32 % response (conc.): relative to the response elicited by 100 μM (S)-nicotine; for IMR-32 % Inhibition (conc.): inhibition of the efflux elicited by 100 μM (S)-nicotine
Description: Cells of the IMR-32 human neuroblastoma clonal cell line (ATCC, Rockville, Md.) were maintained in a log phase of growth according to established procedures (Lukas, 1993). Experimental cells were seeded at a density of 500,000 cells/mL into a 24-well tissue culture dish. Plated cells were allowed to proliferate for at least 48 hours before loading with 2 μCi/mL of ^86 Rb^+ (35 Ci/mmol) overnight at 37° C. The ^86 Rb^+ efflux assays were performed according to previously published protocols (Lukas, R. J., J. Pharmacol. Exp. Ther., 265: 294-302, 1993) except serum-free Dulbecco's Modified Eagle's Medium was used during the ^86 Rb^+ loading, rinsing, and agonist-inducedefflux steps.
Responses (reported as percent relative to the response elicited by 100 μM (S)-nicotine) are shown for the indicated concentrations of selected compounds of the invention. The inhibition data (given for other selected compounds) reflect inhibition of the efflux elicited by 100 μM (S)-nicotine at the indicated concentration. […] This finding is in agreement with the results of others who have linked dopamine release, which is dependent upon the ion flux in synaptic transmission, to binding at nicotinic receptors (cf., for example, Lippiello and Caldwell, U.S. Pat. No. 5,242,935, issued Sep. 7, 1993; Caldwell and Lippiello, U.S. Pat. No. 5,248,690, issued Sep. 28, 1993; and Wonnacott et al., Prog. Brain Res., 79: 157-163 (1989)).

SMILES | Ki [1] | IMR-32 % response (conc.) ([2]; 1 μM) | IMR-32 % response (conc.) ([2]; 10 μM) | IMR-32 % Inhibition (conc.) ([2]; 10 μM) | IMR-32 % response (conc.) ([2]; 100 μM)
Clc1ncccc1C12CCCN1CCC2 [Example 7, 7a-(2-chloro-3-pyridinyl)-hexahydro-1H-pyrrolizine hydrochloride] | 436 nM |  |  |  | 
Cc1ccc(C23CCCN2CCC3)cn1.Cl [Example 20, 7a-(6-methyl-3-pyridinyl)-hexahydro-1H-pyrrolizine hydrochloride salt] | 0.56 nM | 98% |  |  | 
Cc1cc(C23CCCN2CCC3)on1.Cl [Example 1, 7a-(3-methyl-5-isoxazolyl)-hexahydro-1H-pyrrolizine hydrochloride] | 0.97 nM |  | 110% |  | 
Cc1cc(C23CCCN2CCC3)cnc1Cl.Cl [Example 19, 7a-(6-chloro-5-methyl-3-pyridinyl)-hexahydro-1H-pyrrolizine hydrochloride salt] | 0.05 nM | 91% |  |  | 
c1ccc(-c2cncc(C34CCCN3CCC4)c2)cc1 [Example 25, 7a-(5-phenyl-3-pyridinyl)-hexahydro-1H-pyrrolizine hydrochloride salt] | 0.25 nM |  |  |  | 
Cc1ccncc1C12CCCN1CCC2.Cl [Example 24, 7a-(4-methyl-3-pyridinyl)-hexahydro-1H-pyrrolizine hydrochloride salt] | 72 nM |  |  | 14% | 0%
Cl.Fc1ncc(C23CCCN2CCC3)cc1Cl [Example 23, 7a-(5-chloro-6-fluoro-3-pyridinyl)-hexahydro-1H-pyrrolizine hydrochloride salt] | 0.23 nM |  | 68% |  | 
Cc1cncc(C23CCCN2CCC3)c1.Cl [Example 21, 7a-(5-methyl-3-pyridinyl)-hexahydro-1H-pyrrolizine hydrochloride salt] | 0.33 nM | 56% |  |  | 
Cl.Clc1cc(C23CCCN2CCC3)cnc1Cl [Example 8, 7a-(5,6-dichloro-3-pyridinyl)-hexahydro-1H-pyrrolizine hydrochloride] | 0.055 nM | 71% |  |  | 
Brc1cncc(C23CCCN2CCC3)c1.Cl [Example 17, 7a-(5-bromo-3-pyridinyl)-hexahydro-1H-pyrrolizine hydrochloride salt] | 0.61 nM |  | 41% |  | 
CCc1cc(C23CCCN2CCC3)on1.Cl [Example 13, 7a-(3-ethyl-5-isoxazolyl)-hexahydro-1H-pyrrolizine hydrochloride salt] | 1.4 nM |  |  |  | 108%
Cc1cc(C23CCCN2CCC3)cnc1F.Cl [Example 18, 7a-(6-fluoro-5-methyl-3-pyridinyl)hexahydro-1H-pyrrolizine hydrochloride salt] | 0.11 nM |  | 66% |  | 
Cc1cc(C23CCCN2CCC3)[nH]n1 [Example 2, 7a-(1H-3-methyl-5-pyrazolyl)-hexahydro-1H-pyrrolizine dihydrochloride] | 70 nM |  |  |  | 
Fc1ncccc1C12CCCN1CCC2 [Example 6, 7a-(2-fluoro-3-pyridinyl)-hexahydro-1H-pyrrolizine hydrochloride salt] | 5.7 nM |  |  |  | 
Cl.Fc1ccc(C23CCCN2CCC3)c(F)n1 [Example 10, 7a-(2,6-difluoro-3-pyridinyl)-hexahydro-1H-pyrrolizine hydrochloride] | 2.9 nM |  | 13% | 12% | 
Cl.Cl.c1ccc2ncc(C34CCCN3CCC4)cc2c1 [Example 4, 7a-(3-quinolinyl)-hexahydro-1H-pyrrolizine dihydrochloride] | 4.3 nM |  | 40% |  | 
Cl.Fc1ncc(C23CCCN2CCC3)cc1Br [Example 22, 7a-(5-bromo-6-fluoro-3-pyridinyl)-hexahydro-1H-pyrrolizine hydrochloride salt] | 0.22 nM |  | 42% |  | 
Cl.c1ncc(C23CCCN2CCC3)cn1 [Example 9, 7a-(5-pyrimidinyl)-hexahydro-1H-pyrrolizine hydrochloride] | 3.7 nM |  |  |  | 39%
Cl.Clc1ccc(C23CCCN2CCC3)cn1 [Example 5, 7a-(6-chloro-3-pyridinyl)-hexahydro-1H-pyrrolizine hydrochloride] | 0.1 nM | 82% |  |  | 
Cl.Oc1cncc(C23CCCN2CCC3)c1 [Example 16, 7a-(3-hydroxy-5-pyridinyl)-hexahydro-1H-pyrrolizine hydrochloride salt] | 1.4 nM |  |  |  | 53%
Clc1ccc(C23CCCN2CCC3)c(Cl)n1 [Example 11, 7a-(2,6-dichloro-3-pyridinyl)-hexahydro-1H-pyrrolizine hydrochloride salt] | 1420 nM |  |  |  | 
c1ccc(Cc2cc(C34CCCN3CCC4)on2)cc1 [Example 15, 7a-(3-benzyl-5-isoxazolyl)-hexahydro-1H-pyrrolizine hydrochloride salt] | 4 nM |  |  |  | 
c1ccc(COc2cncc(C34CCCN3CCC4)c2)cc1 [Example 16b, 7a-(3-benzyloxy-5-pyridinyl)-hexahydro-1H-pyrrolizine] | 0.27 nM |  |  |  | 
Cl.Fc1ccc(C23CCCN2CCC3)cn1 [Example 12, 7a-(6-fluoro-3-pyridinyl)-hexahydro-1H-pyrrolizine hydrochloride salt] | 0.27 nM |  | 93% |  | 
Cl.c1cncc(C23CCCN2CCC3)c1 [Example 3, 7a-(3-pyridinyl)-hexahydro-1H-pyrrolizine hydrochloride] | 0.38 nM |  | 71% |  | 
CCCc1cc(C23CCCN2CCC3)on1.Cl [Example 14, 7a-(3-propyl-5-isoxazolyl)-hexahydro-1H-pyrrolizine hydrochloride salt] | 1.7 nM |  |  |  | 74%
